# Reference: patent publication US9205119B2, “Neuroprotective compositions and methods” (Rutgers, The State University of New Jersey, priority 2009, dated 2015)
# How the values were obtained:
# Type in all cases: in vivo
# [1] = tested on: pMCAO mice (permanent middle cerebral artery occlusion, focal cerebral ischemia); test: TTC staining to determine infarct volume after pMCAO; details: 30 mg/kg intraperitoneally 2 hr before and 6 hr after pMCAO, measured 24 hr post-pMCAO by TTC staining
# Experimental: Human stroke typically involves disruption of blood flow to a specific region supplied often by the middle cerebral artery (MCA). The classical animal model of focal ischemia, MCA occlusion (MCAO), produces the problem of long-term vessel blockade, simulating what often occurs in human stroke. We have induced focal cerebral ischemia in mice by cauterizing the MCA. To evaluate the acute injury induced by MCAO, animals were euthanized at 24 h after MCAO, and the infarct volume was determined using 2,3,5-triphenyltetrazolium chloride (TTC) staining. (Rajanikant, G. K., et al., Stroke, 38:3023-31 (2007)). In brief, 24 hours after pMCAO, animals were deeply anesthetized with an injection of pentobarbital (70 mg/kg, i.p.) and subjected to intracardiac perfusion with 100 mL of isotonic saline delivered through an electronic pump at 100 mm Hg. The head was then removed with a small animal guillotine and the brain carefully dissected out en bloc. After a brief (<1 minute) period of cooling on a bed of ice, the brain was sliced coronally at 1-mm intervals. […] The infarct area was then quantified from the scanned images using the NIH Image J analysis software (version 1.38). […] Vehicle or various doses (3, 30, 50 or 90 mg/kg) of KB-3 or KB-3a were administered intraperitoneally 2 hr before and 6 hr after pMCAO and the infarct volume was measured at 24 hr post-pMCAO by TTC staining. […]
# [2] = tested on: pMCAO mice (ipsilateral cortex degenerating neurons); test: Fluoro Jade B staining to determine degenerating neurons after pMCAO; details: 30 mg/kg 2 hr before and 6 hr after pMCAO, 24 h after MCAO
# Experimental: We used brain coronal sections […] for Fluoro Jade B staining to determine degenerating neurons, as previously described. (Rajanikant, G. K., et al., Stroke, 38:3023-31 (2007)). In brief, the brain sections on glass slides were dried overnight, immersed for 3 min in 100% ethanol, for 1 min in 70% ethanol, and for 1 min in distilled water, and then incubated in a solution containing 0.01% Fluoro-Jade B (Histo-Chem Inc., Jefferson, Ark.) and 0.1% acetic acid (1:10) for 30 min on a shaker. After three 10-min washes, the slides were coverslipped, and labeled sections were visualized with a confocal laser-scanning microscope.
# pMCAO mice [3] = test: Neurological deficit scoring (18-point scale, Garcia) after pMCAO; details: 30 mg/kg, 24 hr post-pMCAO, mean±SEM, vehicle 12.3±0.48, preoperative 17.5±0.29
# Experimental: To determine whether KB-3a-induced reduction in infarct volume and neuronal degeneration could translate into functional recovery, neurological evaluations were performed right before the surgery and 24 hr following pMCAO. The neurobehavioral deficit scoring system consists of six tests as previously described in detail, which include: (1) spontaneous activity, (2) symmetry of four limb movement, (3) forepaw outstretching while held by tail, (4) climbing wall of wire cage, (5) reaction to touch on either side of trunk, and (6) response to vibrissae touch. (See Garcia, J. H., et al., Stroke, 26:627-34 (1995)). The neurological score given to each mouse at the completion of the evaluation is the summation of all six individual test scores. The minimum neurological score is 3 and the maximum is 18. Using the 18 point-based scale, the normal mean preoperative neurological score was 17.5±0.29.
# pMCAO mice [4] = test: Elevated body-swing test (EBST) after pMCAO; details: intraperitoneally 2 hr pre- and 6 hr post-pMCAO, 24 hr after ischemia, vehicle 66.4±4.9, pre-operated 50.55±1.05
# Experimental: In addition, the elevated body-swing test (EBST), described in detail by Borlongan et al, was used by us to assess asymmetric motor behavior. (Borlongan, C. V. and Sanberg, P. R., J. Neurosci., 15:5372-8 (1995)). Mice were held by the base of the tail and elevated about 10 cm from the tabletop. The direction of body swing, defined as an upper body turn of >10° to either side, was recorded for 1 min during each of three trials. The number of left and right turns was counted, and the percentage of turns made to the side contralateral to the ipsilateral hemisphere (% right-biased swing) was determined. (Ishibashi, S., et al., Exp. Neurol., 207:302-13 (2007)). The EBST was used to detect asymmetry in motor behavior at 24 hr post-pMCAO.
SMILES,reduction in infarct volume compared with vehicle-treated group [1],reduction of Fluoro-Jade B staining within the ipsilateral cortex compared to vehicle control [2],neurological score (18 point-based scale) (pMCAO mice [3]),percent right-biased swing (EBST) (pMCAO mice [4]) [%]
"CC(C)=CCC/C(=C/CC/C(C)=C/CC/C(C)=C/Cc1cc(O)cc(C)c1O)C(=O)O [KB-3, sargahydroquinoic acid]",approximately 48%,–,–,–
"CC(=O)Oc1cc(C)c(OC(C)=O)c(CC=C(C)CCC=C(C)CCC=C(CCC=C(C)C)C(=O)O)c1 [KB-3a, 1,4-diacetyl-sargahydroquinoic acid]",approximately 54%,approximately 50%,17±0.41,52.16±1.8
